Consider eleven molecules from patent US20260049077A1, “Neurotrophic Receptor Tyrosine Kinase (NTRK) Inhibitors and Methods Using Same” (Baylor College of Medicine, priority 2022, published 2026).

The conditions of series [1]: in vivo; cited from earlier work.
Series [2] has as its target T1, NTRK2 (Homo sapiens (Human), UniProt Q16620). Briefly: NTRK2 inhibition (IC50). Type of series: biochemical.
The target in series [3] is T1, NTRK2. Briefly: Promega NTRK2 NanoBRET live-cell target engagement. Type of series: cell-based. As to conditions: live cells. An excerpt: FIGS. 6A-6B show the live-cell engagement (FIG. 6A) concept and an NTRK2 example (FIG. 6B). FIG. 6A: Depiction of Promega's NanoBRET target engagement system as per their website. The system involves cell-based competitive displacement of a fluorescent NanoBRET tracer bound reversibly to a NanoLuc fusion protein. Test compounds displace the tracer dependent on their affinity for the target and […] the NanoBRET signal. FIG. 6B: Example of the use of Promega's NTRK2 NanoBRET cell-based system. Each NTRK2 compound (Cpd) was assayed in kinase assays and in cells. Multiple NTRK2 compounds enter the cell and are potent nanomolar inhibitors in these assays (% normalized to no Cpd).
As described elsewhere herein, hit compounds, including but not limited to CDD-2262, and its smaller analog, CDD-2330, were synthesized off-DNA and evaluated for NTRK2 activity.
In general terms: In BRET a luciferase serves as donor, and the signal depends on an acceptor being close.

In a further series the target is NTRK1 (Homo sapiens (Human), UniProt P04629). Briefly: NTRK1 inhibition (IC50). The settings on record: read-out: NTRK1 IC50.
The target of the next series is NTRK3 (Homo sapiens (Human), UniProt Q16288). Briefly: NTRK3 inhibition (IC50). As to conditions: read-out: NTRK3 IC50.
Series [4] in a line: Metabolic stability in mouse liver microsomes (MLM).
A short description of series [5]: Metabolic stability in human liver microsomes (HLM). In general terms: Liver microsomes are vesicles of endoplasmic reticulum, rich in cytochrome P450 enzymes.
The conditions of series [6]: at 4 h; cited from earlier work.
Another series relates to human kinome. Briefly: KINOMEscan kinome-wide binding profiling. As to conditions: 1 μM. An excerpt:
(§1) FIG. 7B: Using the ThermoFisher Z'-LYTE™ screening assay, kinase specificity for the NTRK subfamily was observed.
(§2) To broadly assess the kinome-wide selectivity of CDD-2330, a KINOMEscan profiling platform was employed (FIG. 7A).

Another series concerns the target NTRKs. Briefly: ThermoFisher Z'-LYTE kinase assay, NTRKs. Format: biochemical. As to conditions: Z'-LYTE dose response; range over NTRKs.
From the text: as §1, §2

The next series deals with MAP3K19 (Homo sapiens (Human), UniProt Q56UN5). Briefly: ThermoFisher Z'-LYTE kinase assay, MAP3K19. Type of series: biochemical.
Series [7] is described as follows: Metabolic stability in mouse and human liver microsomes. Type of series: in vitro ADME. As to conditions: mouse and human liver microsomes in vitro.
Series [8] is described as follows: Mouse brain and testis distribution. Type of series: in vivo. The settings on record: ip, mice, intraperitoneal. The protocol: FIGS. 9A-9B show mouse brain (FIG. 9A) and testis (FIG. 9B) distribution of CDD-2330. Mice (n=3 per timepoint) were treated intraperitoneally with CDD-2330 and brain, testis, and blood samples were collected. Samples were processed and analyzed by LC-MS.

Series [9] in a line: Pharmacokinetics of orally administered CDD-2330 in mice. Type of series: in vivo, mouse. The settings on record: oral 50 mg/kg. The protocol: CDD-2330 was dissolved in 10% DMSO+0.5% methyl cellulose at 5 mg/mL. CDD-2330 was orally delivered at 50 mg/kg to mice (n=4). Blood samples were collected at 0, 0.25, 0.5, 1, 2, 4, 6, 8, and 24 h. Samples were analyzed by LC-MS, and the concentration of CDD-2330 was quantified with a standard curve (range: 0-10 μM). CDD-3031 was administered by oral gavage at a dose of 50 mg/kg. Blood samples were collected at […], 0.167, 0.25, 0.5, 1, 2, 4, 6, 8, and 24 h.

The nature of series [10]: Plasma ALT and AST in mice after a high dose (50 mg/kg). Format: in vivo, mouse.
The target of series [11] is T1, NTRK2. Briefly: NTRK2 apparent inhibition constant (Ki app).
Series [12] in a line: Brain uptake in mice 24 hours post-administration. Type of series: in vivo, mouse. The settings on record: mouse, brain, 24 h, read-out: Brain Concentration at 24 h (ng/mg).
The test system of a further series is endometriotic lesions. Briefly: Endometriosis mouse model, lesion efficacy. Format: in vivo. The settings on record: for number, volume and mass of lesions / endometriotic lesion growth: 10 mg/kg; for number, volume and mass of lesions: compared to vehicle control; for endometriotic lesion growth: excised lesions. The protocol:
FIGS. 17A-17F depict the robust efficacy of the inhibitory compounds of the present disclosure as NTRK2 inhibitors for inhibition of endometriotic lesion growth in mice utilizing CDD-3132 as an example. FIG. 17A provides a schematic overview of the experiment performed. FIGS. 17B-17C provide photographs showing excised lesions with administration of a control (FIG. 17B) or CDD-3132 (10 mg/kg/day) (FIG. 17C).
(§3) In one aspect, the present disclosure provides exemplary data relating to the administration of NTRK2 inhibitors in a mouse model of endometriosis (FIG. 14). In certain embodiments, the recipient mouse is administered the NTRK2 inhibitor and/or controls on day 14 after intraperitoneal injection of endometrium of the donor mouse. In certain embodiments, the recipient mouse is sacrificed and quantitatively assessed on day 28.

The nature of series [13]: Endometriosis mouse model, liver and kidney toxicity (organ weight, ALT, AST). Format: in vivo. The arrangement: ALT (Mean ± SD) / AST (Mean ± SD): unit not given here. As to conditions: for ALT (Mean ± SD) / AST (Mean ± SD): i.p. dose of 10 mg/kg/day for 14 days. The protocol:
as §3

A further series has as its system FLT3-ITD. The settings on record: cited from earlier work.
[14] abbreviates: plasma, 48 h after oral 50 mg/kg CDD-2330, individual mice.
Setting [15] is: group average, CDD-2737 at 10 mg/kg/day for 14 days, n-butyrate 100 mM.
Setting [16] is: individual mice, CDD-2737 at 10 mg/kg/day for 14 days, n-butyrate 100 mM.

Several values for one entry are separate records, joined by “and”; a condition that tells them apart may be missing. Equal values may be shown once. Entries after “also recorded” stand apart in the source; their conditions may differ. Read-outs that look alike come from different tables or passages of the source.

Sequence of NTRK1 (P04629 33-796): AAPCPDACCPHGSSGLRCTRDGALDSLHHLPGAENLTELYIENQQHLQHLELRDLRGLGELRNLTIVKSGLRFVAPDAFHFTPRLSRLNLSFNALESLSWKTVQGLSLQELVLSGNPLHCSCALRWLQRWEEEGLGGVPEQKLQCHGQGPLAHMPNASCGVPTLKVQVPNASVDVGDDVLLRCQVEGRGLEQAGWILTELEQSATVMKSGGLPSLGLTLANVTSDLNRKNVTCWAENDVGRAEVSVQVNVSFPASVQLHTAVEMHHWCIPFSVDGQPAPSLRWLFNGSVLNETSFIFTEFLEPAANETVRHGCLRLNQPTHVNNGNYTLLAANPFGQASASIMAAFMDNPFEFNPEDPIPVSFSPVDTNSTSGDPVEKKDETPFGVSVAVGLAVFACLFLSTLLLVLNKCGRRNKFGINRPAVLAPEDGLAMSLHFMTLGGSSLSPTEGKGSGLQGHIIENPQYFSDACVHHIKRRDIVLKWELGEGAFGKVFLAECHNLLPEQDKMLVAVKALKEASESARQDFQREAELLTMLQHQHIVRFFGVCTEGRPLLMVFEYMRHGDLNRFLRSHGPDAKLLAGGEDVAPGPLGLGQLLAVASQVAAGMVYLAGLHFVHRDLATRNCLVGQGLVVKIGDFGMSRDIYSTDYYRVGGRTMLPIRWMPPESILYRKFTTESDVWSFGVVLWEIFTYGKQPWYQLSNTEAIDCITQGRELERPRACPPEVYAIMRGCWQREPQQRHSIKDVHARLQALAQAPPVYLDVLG
Sequence of NTRK3 (Q16288 32-839): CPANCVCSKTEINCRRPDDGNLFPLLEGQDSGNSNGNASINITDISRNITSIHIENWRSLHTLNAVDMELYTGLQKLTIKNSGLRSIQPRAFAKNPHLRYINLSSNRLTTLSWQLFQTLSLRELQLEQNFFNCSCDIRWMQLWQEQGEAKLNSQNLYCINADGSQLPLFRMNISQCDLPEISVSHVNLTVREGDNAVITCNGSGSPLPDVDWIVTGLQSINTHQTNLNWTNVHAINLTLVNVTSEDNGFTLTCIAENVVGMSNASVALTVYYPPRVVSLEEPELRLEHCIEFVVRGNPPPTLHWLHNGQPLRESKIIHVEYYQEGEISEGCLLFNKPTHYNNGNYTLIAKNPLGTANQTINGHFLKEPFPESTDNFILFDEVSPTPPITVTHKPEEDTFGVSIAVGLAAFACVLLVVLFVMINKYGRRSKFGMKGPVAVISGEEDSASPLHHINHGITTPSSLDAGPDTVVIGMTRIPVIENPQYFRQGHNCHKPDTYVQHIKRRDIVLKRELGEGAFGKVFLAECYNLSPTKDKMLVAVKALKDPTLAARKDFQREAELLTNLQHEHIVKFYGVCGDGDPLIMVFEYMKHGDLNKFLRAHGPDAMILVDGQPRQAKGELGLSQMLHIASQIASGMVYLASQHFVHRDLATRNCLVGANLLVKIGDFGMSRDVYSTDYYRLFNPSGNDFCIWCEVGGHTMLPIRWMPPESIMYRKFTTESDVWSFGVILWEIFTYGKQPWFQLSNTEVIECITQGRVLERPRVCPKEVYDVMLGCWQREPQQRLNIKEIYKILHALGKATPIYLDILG
T1 sequence (Q16620 32-822): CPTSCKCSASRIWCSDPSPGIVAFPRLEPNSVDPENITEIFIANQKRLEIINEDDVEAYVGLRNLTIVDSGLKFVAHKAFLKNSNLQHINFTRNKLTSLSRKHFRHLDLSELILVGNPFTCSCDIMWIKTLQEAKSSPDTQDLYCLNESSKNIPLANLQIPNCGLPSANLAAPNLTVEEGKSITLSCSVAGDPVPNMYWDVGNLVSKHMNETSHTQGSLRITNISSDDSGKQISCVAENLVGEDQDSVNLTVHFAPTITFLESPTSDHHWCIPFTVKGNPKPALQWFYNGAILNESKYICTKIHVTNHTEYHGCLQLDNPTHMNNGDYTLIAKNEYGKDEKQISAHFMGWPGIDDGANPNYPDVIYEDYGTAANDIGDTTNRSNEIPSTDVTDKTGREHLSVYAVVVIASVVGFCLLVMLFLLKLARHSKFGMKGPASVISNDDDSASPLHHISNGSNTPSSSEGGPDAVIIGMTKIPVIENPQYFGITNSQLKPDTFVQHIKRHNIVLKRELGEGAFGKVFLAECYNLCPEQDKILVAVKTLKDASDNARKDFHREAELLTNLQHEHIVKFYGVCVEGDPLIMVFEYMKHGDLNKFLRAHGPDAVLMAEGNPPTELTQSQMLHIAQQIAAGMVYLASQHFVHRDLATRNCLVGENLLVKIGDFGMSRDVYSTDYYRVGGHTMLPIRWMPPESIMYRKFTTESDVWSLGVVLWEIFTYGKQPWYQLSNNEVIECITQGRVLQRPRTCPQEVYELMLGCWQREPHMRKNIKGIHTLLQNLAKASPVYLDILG
Sequence of MAP3K19 (Q56UN5 whole entry): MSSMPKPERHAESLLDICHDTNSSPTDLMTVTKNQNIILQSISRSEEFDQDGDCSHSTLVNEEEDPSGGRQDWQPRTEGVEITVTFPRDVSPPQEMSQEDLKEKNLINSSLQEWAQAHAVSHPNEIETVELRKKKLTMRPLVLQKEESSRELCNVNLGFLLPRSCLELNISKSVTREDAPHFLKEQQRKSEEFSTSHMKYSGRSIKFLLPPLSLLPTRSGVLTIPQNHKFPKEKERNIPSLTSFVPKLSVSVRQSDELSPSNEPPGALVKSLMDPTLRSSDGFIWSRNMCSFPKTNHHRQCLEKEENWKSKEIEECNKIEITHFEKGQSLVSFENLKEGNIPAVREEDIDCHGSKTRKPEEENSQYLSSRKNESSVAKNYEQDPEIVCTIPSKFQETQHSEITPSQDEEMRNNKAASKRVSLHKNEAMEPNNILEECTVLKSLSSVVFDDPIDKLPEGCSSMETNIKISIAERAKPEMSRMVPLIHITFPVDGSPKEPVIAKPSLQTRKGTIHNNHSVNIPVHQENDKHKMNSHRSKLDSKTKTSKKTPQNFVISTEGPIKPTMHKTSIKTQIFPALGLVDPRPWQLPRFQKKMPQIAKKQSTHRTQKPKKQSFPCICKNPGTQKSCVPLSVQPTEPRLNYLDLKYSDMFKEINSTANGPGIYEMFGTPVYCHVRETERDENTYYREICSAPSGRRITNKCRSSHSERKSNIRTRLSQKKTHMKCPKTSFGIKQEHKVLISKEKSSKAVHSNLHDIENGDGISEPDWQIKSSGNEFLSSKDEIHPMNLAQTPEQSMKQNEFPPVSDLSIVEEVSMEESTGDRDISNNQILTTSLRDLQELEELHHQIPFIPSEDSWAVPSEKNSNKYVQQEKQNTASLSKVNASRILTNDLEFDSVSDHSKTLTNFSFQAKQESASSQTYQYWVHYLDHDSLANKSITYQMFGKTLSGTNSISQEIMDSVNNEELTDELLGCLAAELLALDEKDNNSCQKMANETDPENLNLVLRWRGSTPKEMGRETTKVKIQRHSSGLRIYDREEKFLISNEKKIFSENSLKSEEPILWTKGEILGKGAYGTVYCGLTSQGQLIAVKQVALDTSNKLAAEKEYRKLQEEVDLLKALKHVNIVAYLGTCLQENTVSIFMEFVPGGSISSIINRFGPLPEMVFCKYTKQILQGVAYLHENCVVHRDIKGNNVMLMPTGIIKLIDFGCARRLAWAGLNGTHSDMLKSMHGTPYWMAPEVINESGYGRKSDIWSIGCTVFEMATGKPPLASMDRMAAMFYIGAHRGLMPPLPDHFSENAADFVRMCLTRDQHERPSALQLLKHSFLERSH

Consider `O=C(Nc1cnn2ccc(N3CCC[C@@H]3c3cc(F)ccc3F)nc12)N1CC[C@H](O)C1` [larotrectinib], for which the blood-brain barrier crossing result in series [1] is listed as “cross the blood-brain barrier”.

By IC50 is commonly meant the point on the concentration scale where inhibition reaches its midpoint. A word on the half-life: it is the time needed for the level to fall by half in the phase considered. In the case of `CC(C)c1ccc(OCC(=O)N(Cc2ccn3ncc(C(N)=O)c3c2)C(C)C)cc1` [CDD-3032, 5-((N-isopropyl-2-(4-isopropylphenoxy)acetamido)methyl)pyrazolo[1,5-a]pyridine-3-carboxamide], the IC50 is 6.1 nM on NTRK2 [2], 34 nM at NTRK1 and 13.7 nM at NTRK3. Besides, the “cell penetration and effect in NanoBRET assays” value (“cell penetration and effect” below) at NTRK2 [3] is “able to penetrate cell membranes to induce an effect”. Moreover, the half-life is 0.105 h in series [4] and 0.472 h in series [5].

Turning to `CNCC[C@@H](Oc1ccccc1C)c1ccccc1` [atomoxetine], the “Brain:Plasma (comparator antidepressant drug)” value in series [6] is recorded as 20.

As to `CC(C)N(Cc1ccn2ncc(C(=O)O)c2c1)C(=O)Nc1ccc(OC(F)(F)F)cc1` [CDD-2330, 5-((1-isopropyl-3-(4-(trifluoromethoxy)phenyl)ureido)methyl)pyrazolo[1,5-a]pyridine-3-carboxylic acid], the IC50 against NTRK2 [2] was 3.5 nM; against NTRKs it was 1.2 to 3.8 nM; at MAP3K19 (Z'-LYTE dose response), 401 nM; on NTRK1 it was 3.8 nM; on NTRK3, 1.2 nM. In addition, at NTRK2 [3], the “cell penetration and effect” value is recorded as “able to penetrate cell membranes to induce an effect”. Further, the “kinome-wide selectivity (KINOMEscan)” value with human kinome is “highly specific for NTRK1, NTRK2, and NTRK3; also recorded: high specificity for NTRKs, with MAP3K19 as the only possible off-target”. Besides, the “selectivity over MAP3K19” value at MAP3K19 (NTRKs vs MAP3K19, Z'-LYTE) was > 100 fold. Further, the half-life in series [7] was > 25 h; in series [4], 27.2 h; in [5], 25.6 h. Moreover, the Kp at 4 h in series [8] (brain, read-out: Brain:Plasma) amounted to 0.31; in series [8] (testis, read-out: Testis:Plasma), 0.31. For the same molecule, the “blood level after oral administration” value in series [9] is listed as “rapid disappearance in the blood”. Further, in series [10] (high dose, 50 mg/kg), the “potential liver and other tissue toxicity” value was “minimal effects”. Besides, the ALT in series [10] (setting [14]) is 13.97 U/L and 26.17 U/L and 13.44 U/L and 18.74 U/L. Also, the AST in series [10] (setting [14]) was 19.45 U/L and 18.92 U/L and 26.17 U/L and 13.26 U/L.

At NTRK2 [2], `CCOc1ccc(CC(=O)N(Cc2ccn3nccc3c2)[C@H](C)c2ccccc2)cc1` [CDD-2222, (R)-2-(4-ethoxyphenyl)-N-(1-phenylethyl)-N-(pyrazolo[1,5-a]pyridin-5-ylmethyl)acetamide] gave a half-maximal inhibitory concentration (IC50) of 43 nM. Further, on NTRK2 [11], the Ki came to 34 ± 10 nM.

In the case of `CC(C)N(Cc1ccn2ncc(C(N)=O)c2c1)C(=O)Nc1ccc(OC(F)(F)F)cc1` [CDD-2737, 5-((1-isopropyl-3-(4-(trifluoromethoxy)phenyl)ureido)methyl)pyrazolo[1,5-a]pyridine-3-carboxamide], the IC50 against NTRK2 [2] was found to be 2.3 nM; at NTRK1 it was 6.1 nM; at NTRK3 it was 3.1 nM. On NTRK2 [3], the “cell penetration and effect” value is “able to penetrate cell membranes to induce an effect”. Moreover, in [12], the concentration at 24 h is 40 ng/g. Moreover, in the series on endometriotic lesions (endometriosis mouse model, compared to controls), the “number and size of lesions” value is “decreases the number of lesions and the size of lesions; also recorded: decreased number of lesions and lesions of diminished size”. Further, the “gross and serum effects on the liver and kidney” value in [13] (endometriosis mouse model) was “no gross or serum effects; also recorded: no gross effects”. For the same molecule, in series [13] (setting [15]), the “ALT (U/L), Average” value was 15.2 U/L. In series [13] (setting [15]), the “AST (U/L), Average” value is 31.3 U/L. Also, in series [13] (setting [16]), the “ALT (U/L)” value was 13.79 U/L and 13.61 U/L and 10.25 U/L and 23.16 U/L. Further, in series [13] (setting [16]), the “AST (U/L)” value was 28.11 U/L and 47.21 U/L and 27.58 U/L and 22.28 U/L. The half-life turned out to be 2.6 h in [4] and 3.17 h in series [5].

For `FC(F)(F)c1ccc(CNc2ccc(Cc3c[nH]c4ncc(Cl)cc34)cn2)cn1` [Pexidartinib], in the series with FLT3-ITD, the IC50 is 9 nM.

For the molecule `CN1CCN(c2ccc(C(=O)Nc3n[nH]c4ccc(Cc5cc(F)cc(F)c5)cc34)c(NC3CCOCC3)c2)CC1` [Entrectinib, N-(5-(3,5-difluorobenzyl)-1H-indazol-3-yl)-4-(4-methylpiperazin-1-yl)-2-((tetrahydro-2H-pyran-4-yl)amino)benzamide], in series [1], the blood-brain barrier crossing result is on record as “cross the blood-brain barrier”.

Regarding `CC(C)N(Cc1ccn2nccc2c1)C(=O)Nc1ccc(OC(F)(F)F)cc1` [CDD-2299, 1-isopropyl-1-(pyrazolo[1,5-a]pyridin-5-ylmethyl)-3-(4-(trifluoromethoxy)phenyl)urea], the values for the concentration for half-maximal inhibition (IC50) on NTRK2 [2] and at NTRK1 were 3.7 nM and 31 nM, respectively. In addition, the “cell penetration and effect” value at NTRK2 [3] was “able to penetrate cell membranes to induce an effect”. In addition, the half-life in [4] turned out to be 0.337 h; in series [5], 0.718 h.

As to `CC(C)(CO)n1cc(C(=O)c2cncc(NC(=O)Cc3ccc(Cl)cn3)c2)c2cnc(N)nc21` [PF-06273340, N-[5-[[2-Amino-7-(2-hydroxy-1,1-dimethylethyl)-7H-pyrrolo[2,3-d]pyrimidin-5-yl]carbonyl]-3-pyridinyl]-5-chloro-2-pyridineacetamide, reference compound], the concentration at 24 h in [12] was 80 ng/g. Moreover, in the series on endometriotic lesions, the “number, volume and mass of lesions” value was “reduction of lesions, volume of lesions, and mass of lesions”; the endometriotic lesion growth entry is “inhibiting endometriotic lesion growth”. In series [13], the “ALT (Mean ± SD)” value is given as 15.1 ± 1.6 and the “AST (Mean ± SD)” value is 25.3 ± 7.1. In addition, in series [4], the half-life is 3.37 h. The half-life in series [5] came out at 8.37 h.

Consider `CC(C)N(Cc1ccn2ncc(C(N)=O)c2c1)C(=S)Nc1ccc(OC(F)(F)F)cc1` [CDD-3119, 5-((1-isopropyl-3-(4-(trifluoromethoxy)phenyl)thioureido)methyl)pyrazolo[1,5-a]pyridine-3-carboxamide], for which the values for the IC50 at NTRK2 [2], on NTRK1 and on NTRK3 were 3.6 nM, 3.8 nM and 6.6 nM, respectively. The concentration at 24 h in series [12] was 140 ng/g. The “number, volume and mass of lesions” value with endometriotic lesions was “reduction of lesions, volume of lesions, and mass of lesions”. Besides, the endometriotic lesion growth result with endometriotic lesions was “inhibiting endometriotic lesion growth”. The “effect on liver and/or kidney weight and/or serum elevation of ALT and AST” value in series [13] (10 mg/kg, mice with endometriotic lesions) is “little to no effect”. Moreover, in series [13], the “ALT (Mean ± SD)” value was found to be 21.3 ± 4.9. The “AST (Mean ± SD)” value in series [13] is 53.2 ± 18.5. In series [13] (mice treated for 14 days), the “impact on liver and kidney weights” value is on record as “no significant impact”. In addition, the half-life in [4] was determined as 4.83 h; in [5], 1.6 h.
